Bounds are passed on as bounds.

For one test, the target named is Glutamate NMDA receptor. The experiment in a line: Evaluated for its affinity to bind PCP N-methyl-D-aspartate (NMDA) glutamate receptor in rat brain membrane using [3H]MK-801 as radioligand. It is filed as cell membranes.
`C[C@]12Cc3ccccc3C[C@](C)(N1)c1ccccc12` displayed an IC50 of 30 nM.
The molecule `c1ccc2c(c1)C[C@@H]1N[C@H](C2)c2ccccc21` showed an IC50 of 640 nM.
Molecule `C[C@]12N[C@H](Cc3ccccc31)Cc1ccccc12` yielded an IC50 of 140 nM.
Molecule `C[C@]12N[C@](C)(c3ccccc31)c1ccccc12` had an IC50 of 24 nM.
`CC12Cc3ccccc3[C@@H](N1)c1ccccc12` (mixture of isomers) came in with an IC50 of 260 nM.
As for `CC1c2ccccc2C[C@H]2N[C@]1(C)c1ccccc12` (mixture of isomers), the IC50 is 590 nM.
Regarding `CC12Cc3ccccc3[C@H](Cc3ccccc31)N2` (mixture of isomers), the IC50 is 690 nM.
On the same count and under the same terms, for `C[C@]12Cc3ccccc3[C@@H]3[C@H](c4ccccc41)N32` (mixture of isomers) the value was more than 100000 nM.
In turn, `C[C@@]12Cc3ccccc3[C@@H](C=N1)c1ccccc12` (racemic) registered an IC50 of more than 100000 nM.
Molecule `Cc1cccc2c1[C@H]1Cc3ccccc3[C@]2(C)N1` (racemic) had an IC50 of 3000 nM.
Consider `C[C@@]12Cc3ccc(Cl)cc3C[C@@H](N1)c1ccccc12` (racemic), for which the IC50 stood at 190 nM.
For `CCCC[C@@]12Cc3ccccc3C[C@@](C)(N1)c1ccccc12` (racemic), the IC50 came out at 3600 nM.
The molecule `C[C@@]12Cc3ccc(O)cc3C[C@@H](N1)c1ccccc12` (racemic) registered an IC50 of 140 nM.
Turning to `COc1ccc2c(c1)C[C@H]1N[C@@](C)(C2)c2ccccc21` (racemic), the IC50 worked out at 220 nM.
`C[C@@]12Cc3ccccc3C[C@@H](N1)c1cc(Br)ccc12` (racemic) yielded an IC50 of 270 nM.
`Cc1ccc2c(c1)C[C@H]1N[C@]2(C)c2ccccc21` (racemic) registered an IC50 of 640 nM.
On the same count and under the same terms, under `C[C@]12Cc3ccccc3C[C@](O)(N1)c1ccccc12` (racemic) stands 104 nM; under `C[C@@]12Cc3ccccc3C[C@@H](N1)c1ccccc12` (racemic), 86 nM.
Turning to `CN1[C@@H]2Cc3ccccc3C[C@@]1(C)c1ccccc12` (racemic), the IC50 worked out at 530 nM.
`C[C@@]12Cc3ccc(Br)cc3C[C@@H](N1)c1ccccc12` (racemic) came in with an IC50 of 320 nM.
On the same count and under the same terms, for `C[C@@]12Cc3ccccc3C[C@@H](N1)c1ccc(Br)cc12` (racemic) the value was 140 nM.
Same read-out and setting: under `Cc1ccc2c(c1)[C@@]1(C)N[C@@H]2Cc2ccccc21` (racemic) stands 100 nM; under `C[C@@]12N[C@@H](c3ccccc31)[C@H](O)c1ccccc12` (racemic), 640 nM.
Still for that read-out and setting: for `C[C@]12N[C@](C)(Cc3ccccc31)c1ccccc12` (racemic) the value was 35 nM; for `C[C@]12Cc3ccccc3C[C@H](c3ccccc31)N2Cc1ccccc1` (racemic), 23000 nM; for `C[C@@]12Cc3ccccc3C[C@@H](N1)c1cc(Cl)ccc12` (racemic), 250 nM.
Turning to `CC[C@@]12Cc3ccccc3C[C@@H](N1)c1ccccc12` (racemic), the IC50 was found to be 1360 nM.
`C[C@]12N[C@H](Cc3ccccc31)c1c2ccc2ccccc12` (racemic) had an IC50 of 2300 nM.
On the same count and under the same terms, for `C[C@]12N[C@H](Cc3cc4ccccc4cc31)c1ccccc12` (racemic) the value was 89000 nM; for `CCN1[C@@H]2Cc3ccccc3C[C@@]1(C)c1ccccc12` (racemic), 2510 nM.
Still for that read-out and setting: under `Cc1cccc2c1C[C@H]1N[C@]2(C)c2ccccc21` (racemic) stands 800 nM.
In the case of `C[C@]12Cc3ccccc3C[C@H](c3ccccc31)[N+]2(C)C` (racemic), the IC50 stood at 7100 nM.
The same measure, in the same setting: under `C[C@@]12Cc3ccccc3C[C@@H](N1)c1c(Cl)cccc12` (racemic) stands 1370 nM.
On the same count and under the same terms, under `C[C@]12N[C@H](Cc3c1ccc1ccccc31)c1ccccc12` (racemic) stands 5800 nM; under `Cc1ccc2c(c1)[C@]1(C)N[C@H](C2)c2ccccc21` (racemic), 32 nM.
Same read-out and setting: under `Cc1ccc2c(c1)[C@H]1Cc3ccccc3[C@]2(C)N1` (racemic) stands 440 nM.
In turn, `C[C@]12N[C@H](Cc3ccccc31)c1cc3ccccc3cc12` (racemic) registered an IC50 of 86000 nM.
In the case of `C[C@@]12Cc3cc(Br)ccc3C[C@@H](N1)c1ccccc12` (racemic), the IC50 worked out at 79 nM.
For the molecule `C[C@@]12Cc3ccccc3C[C@@H](N1)c1ccccc12` (stereo in doubt; (+)-15), the IC50 came out at 104 nM.
With `C[C@@]12Cc3ccccc3C[C@@H](N1)c1ccccc12` (stereo in doubt; (-)-15), the IC50 is 106 nM.

The next test addresses Glutamate NMDA receptor. Put plainly: Evaluated for its affinity to bind ion channel binding sites (phencyclidine or PCP receptor) on the N-methyl-D-aspartate glutamate receptor in rat brain membrane using [3H]MK-801 as radioligand. The format is cell membranes.
Molecule `C[C@@]12Cc3ccccc3C(CN1)[C@@H](O)c1ccccc12` (mixture of isomers) returned an IC50 of 8100 nM.
`CC12Cc3ccccc3[C@@H](O)C(CN1)c1ccccc12` (mixture of isomers) showed an IC50 of 950 nM.
As to `C[C@@]12N[C@@](C)(c3ccccc31)C(O)c1ccccc12` (mixture of isomers; 13), the IC50 is 65 nM.
As for `C[C@@]12N[C@@](C)(c3ccccc31)C(O)c1ccccc12` (mixture of isomers; 14), the IC50 turned out to be 6600 nM.

For orientation: IC50 means the concentration that inhibits the measured activity by half.

The values above are taken from ChEMBL document CHEMBL1124755, “Role of hydrogen bonding in ligand interaction with the N-methyl-D-aspartate receptor ion channel” (J Med Chem, 1990).
